Source: ChEMBL document CHEMBL4184256, “Synthesis and biological evaluation of longanlactone analogues as neurotrophic agents” (Bioorg Med Chem Lett, 2018)
The source made the active and inactive calls. The rule behind the calls is not given here.

Experiments:
[1] = system: N2a; assay: Neurotrophic activity in mouse Neuro2a cells assessed as increase in neurite length at 0.01 uM incubated for 48 hrs relative to untreated control; type: functional
[2] = system: N2a; assay: Neurotrophic activity in mouse Neuro2a cells assessed as increase in neurite length at 0.1 uM incubated for 48 hrs relative to untreated control; type: functional
[3] = system: N2a; assay: Cytotoxicity in mouse Neuro2a cells assessed as reduction in cell viability by MTT assay; type: cell-based
[4] = system: N2a; assay: Neurotrophic activity in mouse Neuro2a cells assessed as increase in BDNF mRNA expression at 0.01 uM incubated for 2 hrs by RT-qPCR method relative to untreated control
[5] = system: N2a; assay: Neurotrophic activity in mouse Neuro2a cells assessed as increase in NT3 mRNA expression at 0.01 uM incubated for 2 hrs by RT-qPCR method relative to untreated control
[6] = system: N2a; assay: Neurotrophic activity in mouse Neuro2a cells assessed as increase in NT3 mRNA expression at 0.1 uM incubated for 2 hrs by RT-qPCR method relative to untreated control
[7] = system: N2a; assay: Neurotrophic activity in mouse Neuro2a cells assessed as increase in BDNF mRNA expression at 0.1 uM incubated for 2 hrs by RT-qPCR method relative to untreated control

Row | SMILES | Activity [1] [%] | Activity [2] [%] | IC50 [3] [µM] | Activity [4] | Activity [5] | Activity [6] | Activity [7]
1 | CC(=O)c1cccn1[C@H]1C[C@H](CC#Cc2ccc([N+](=O)[O-])cc2)OC1=O | 1.43 | 13.27 | > 100 | – | – | – | –
2 | CC(=O)c1cccn1[C@H]1C[C@@H](Cc2cn([C@H]3C[C@H](n4cc(C)c(=O)[nH]c4=O)O[C@@H]3CO)nn2)OC1=O | 3.67 | 6.61 | 96.2 | – | – | – | –
3 | CC(=O)c1cccn1[C@H]1C[C@@H](CC#Cc2ccc([N+](=O)[O-])cc2)OC1=O | -7.58 | 9.11 | > 100 | – | – | – | –
4 | C#CC[C@H]1C[C@H](n2cccc2)C(=O)O1 | 12.15 | 14.56 | > 100 | – | – | – | –
5 | C#CC[C@@H]1C[C@H](n2cccc2C(=O)CC)C(=O)O1 | 11.63 | 9.47 | 40.6 | – | – | – | –
6 | C#CC[C@@H]1C[C@H](n2cccc2C(=O)C(F)(F)F)C(=O)O1 | 33.74 | 41.02 | > 100 | Active | inactive | – | –
7 | C#CC[C@@H]1C[C@H](n2cccc2)C(=O)O1 | 6.56 | 10.9 | ≥ 100 | – | – | – | –
8 | CC(=O)c1cccn1[C@H]1C[C@H](Cc2cn(Cc3ccccc3)nn2)OC1=O | -2.23 | 17.02 | 66.9 | – | – | – | –
9 | CC(=O)c1cccn1[C@H]1C[C@H](Cc2cn([C@H]3C[C@H](n4cc(C)c(=O)[nH]c4=O)O[C@@H]3CO)nn2)OC1=O | 9.52 | 14.8 | 95.8 | – | – | – | –
10 | C#CC[C@H]1C[C@H](n2cccc2C(=O)CC)C(=O)O1 | 4.63 | 9.5 | 40.7 | – | – | – | –
11 | CC(=O)c1cccn1[C@H]1C[C@@H](Cc2cn(Cc3ccccc3)nn2)OC1=O | 5.41 | 15.62 | 91.6 | – | – | – | –
12 | C#CC[C@H]1C[C@H](n2cccc2C(=O)C(F)(F)F)C(=O)O1 | 7.76 | 22.22 | 97.8 | – | – | – | –
13 | C#CC[C@@H]1C[C@H](n2cccc2C(C)=O)C(=O)O1 | 8.03 | 37.01 | 121 | – | – | inactive | Active
14 | C#CC[C@H]1C[C@H](n2cccc2C(C)=O)C(=O)O1 | 9.04 | 20.95 | > 100 | – | – | – | –
